Results taken from ChEMBL document CHEMBL1144482, “Design, synthesis, biochemical evaluation and antimycobacterial action of phosphonate inhibitors of antigen 85C, a crucial enzyme involved in biosynthesis of the mycobacterial cell wall” (Eur J Med Chem, 2007).
Converted amounts (≈) assume the structure as drawn. The source made the active and inactive calls. The calls are words filed in the database; no cut-off is given here.

How the values were obtained:
[1] = test system: Mycobacterium avium; assay: Growth inhibition of Mycobacterium avium 2447; format: functional
[2] = molecular target: Diacylglycerol acyltransferase/mycolyltransferase Ag85C (Mycobacterium tuberculosis, UniProt P9WQN9); assay: Inhibition of Mycobacterium tuberculosis recombinant antigen 85C mycolyltransferase
Diacylglycerol acyltransferase/mycolyltransferase Ag85C, sequence (P9WQN9 whole entry): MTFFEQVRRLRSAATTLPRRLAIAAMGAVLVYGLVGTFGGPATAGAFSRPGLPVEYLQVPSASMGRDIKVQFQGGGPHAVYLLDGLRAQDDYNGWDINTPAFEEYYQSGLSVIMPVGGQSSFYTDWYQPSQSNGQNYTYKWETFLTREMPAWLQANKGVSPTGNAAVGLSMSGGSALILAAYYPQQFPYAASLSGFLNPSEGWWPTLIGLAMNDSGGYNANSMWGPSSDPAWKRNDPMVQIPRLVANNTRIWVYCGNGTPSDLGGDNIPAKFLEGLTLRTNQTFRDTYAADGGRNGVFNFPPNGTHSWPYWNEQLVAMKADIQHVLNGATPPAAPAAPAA

| Compound | MIC [1] | IC50 [2] | Activity [1] |
| --- | --- | --- | --- |
| CCCCCCCCCP(=O)(OCC)OCc1ccccc1Oc1ccccc1 (stereo not drawn) | 188 µg/mL (≈ 450 µM) | 14.8 µM | – |
| CCCCP(=O)(OCC)OCN1C(=O)c2ccccc2C1=O (stereo not drawn) | – | – | inactive |
| CCOP(=O)(O)CCc1ccccc1 | – | 225 µM | – |
| CC[C@H]1OC(=O)[C@H](C)[C@@H](O[C@H]2C[C@@](C)(OC)[C@@H](O)[C@H](C)O2)[C@H](C)[C@@H](O[C@@H]2O[C@H](C)C[C@H](N(C)C)[C@H]2O)[C@](C)(OC)C[C@@H](C)C(=O)[C@H](C)[C@@H](O)[C@]1(C)O [CLARITHROMYCIN] | 0.2 µg/mL (≈ 0.267 µM) | – | – |
| CCCCCCP(=O)(OCC)OCc1ccccc1Oc1ccccc1 (stereo not drawn) | 260 µg/mL (≈ 690 µM) | 42.6 µM | – |
| CCCCP(=O)(OCC)OCc1ccccc1Oc1ccccc1 (stereo not drawn) | 249 µg/mL (≈ 714 µM) | 2 µM | – |
| CCOP(=O)(O)CCCCN1C(=O)c2ccccc2C1=O | – | 110 µM | – |
| CCCCP(=O)(OCC)OCCN1C(=O)c2ccccc2C1=O (stereo not drawn) | 406 µg/mL (≈ 1200 µM) | – | – |
| CCCCCCCCCCCCCCP(=O)(OCC)OCc1ccccc1Oc1ccccc1 (stereo not drawn) | – | 862 µM | – |
| CCCCCCCP(=O)(OCC)OCc1ccccc1Oc1ccccc1 (stereo not drawn) | 319 µg/mL (≈ 817 µM) | 21 µM | – |
| CCCCCCCCCP(=O)(OCC)OCCN1C(=O)c2ccccc2C1=O (stereo not drawn) | – | – | inactive |
| CCCCCCP(=O)(OCC)OCc1cc(OC)c(OC)c(OC)c1 (stereo not drawn) | – | 102 µM | – |
| CCCCCCCP(=O)(OCC)OCN1C(=O)c2ccccc2C1=O (stereo not drawn) | – | – | inactive |
| CCCCCCCCCP(=O)(OCC)OCN1C(=O)c2ccccc2C1=O (stereo not drawn) | 84.5 µg/mL (≈ 214 µM) | – | – |
